# Data from the supplement of paper PMC10307832.
# How the values were obtained:
# Assay in all cases: relative viability (nuclei count vs DMSO), 5 days (fraction); higher = more cells survive
# [1] = compound: CN(c1ncccc1CNc1nc(Nc2ccc3c(c2)CC(=O)N3)ncc1C(F)(F)F)S(C)(=O)=O + CC(=O)c1c(C)c2cnc(Nc3ccc(N4CCNCC4)cn3)nc2n(C2CCCC2)c1=O [Palbociclib] (partner 0.5 µM)
# Method in brief: (§1)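 A single step with final 0.05% Triton X-100, 1% formaldehyde and 1 ug/ml Hoechst fixed the cells and stained nuclei 5 days after treatment. Lung cancer cell lines in 1536-well plates had been treated by pin tool the day after seeding with one drug alone or a fixed anchor-drug dose plus five library-drug doses (not always all listed) in √10 steps, and nuclei were counted on 4× images. Relative viability is the ratio of nuclei in treated wells to nuclei in vehicle wells, taken as the median of duplicate plates.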
# [2] = compound: CN(c1ncccc1CNc1nc(Nc2ccc3c(c2)CC(=O)N3)ncc1C(F)(F)F)S(C)(=O)=O + Cc1nc(NC(=O)N2CCC[C@H]2C(N)=O)sc1-c1ccnc(C(C)(C)C(F)(F)F)c1 [Alpelisib] (partner 2 µM)
# Method in brief: as §1
# [3] = compound: CN(c1ncccc1CNc1nc(Nc2ccc3c(c2)CC(=O)N3)ncc1C(F)(F)F)S(C)(=O)=O + Cc1nc(Nc2ncc(C(=O)Nc3c(C)cccc3Cl)s2)cc(N2CCN(CCO)CC2)n1 [Dasatinib] (partner 0.075 µM)
# Method in brief: as §1
# [4] = compound: CN(c1ncccc1CNc1nc(Nc2ccc3c(c2)CC(=O)N3)ncc1C(F)(F)F)S(C)(=O)=O + CC(C)C[C@H](NC(=O)[C@H](Cc1ccccc1)NC(=O)c1cnccn1)B(O)O [Bortezomib] (partner 0.002 µM)
# Method in brief: as §1
Cell Line,relative viability ([1]; first compound 0.01 µM),relative viability ([1]; first compound 0.03162 µM),relative viability ([1]; first compound 0.1 µM),relative viability ([1]; first compound 0.3162 µM),relative viability ([1]; first compound 1 µM),relative viability ([2]; first compound 0.01 µM),relative viability ([2]; first compound 0.03162 µM),relative viability ([2]; first compound 0.1 µM),relative viability ([2]; first compound 0.3162 µM),relative viability ([2]; first compound 1 µM),relative viability ([3]; first compound 0.01 µM),relative viability ([3]; first compound 0.03162 µM),relative viability ([3]; first compound 0.1 µM),relative viability ([3]; first compound 0.3162 µM),relative viability ([3]; first compound 1 µM),relative viability ([4]; first compound 0.01 µM),relative viability ([4]; first compound 0.03162 µM),relative viability ([4]; first compound 0.1 µM),relative viability ([4]; first compound 0.3162 µM),relative viability ([4]; first compound 1 µM)
LU99A,0.406,0.517,0.465,0.411,0.448,0.48,0.62,0.525,0.588,0.577,0.63,0.529,0.378,0.254,0.267,1.15,1.26,1.09,1.43,1.22
NCI-H1355,0.387,0.362,0.407,0.418,0.331,0.882,0.945,0.797,0.801,0.696,0.757,0.76,0.75,0.606,0.645,1.29,1.28,1.14,1.14,1.07
NCI-H520,0.27,0.209,0.244,0.262,0.24,0.985,0.894,0.829,0.96,1,0.21,0.221,0.151,0.152,0.155,0.695,0.513,0.489,1.13,0.635
NCI-H661,0.406,0.385,0.429,0.383,0.341,0.817,0.695,0.546,0.85,0.5,0.973,0.809,0.885,0.782,0.83,0.928,1.06,0.717,0.837,1.04
NCI-H650,0.324,0.32,0.307,0.266,0.3,1.01,1.23,0.945,0.832,0.725,0.445,0.459,0.434,0.434,0.456,0.69,0.846,0.843,0.692,0.649
NCI-H647,0.349,0.402,0.319,0.367,0.322,1.09,0.919,1.14,1.02,1.17,0.146,0.193,0.127,0.151,0.125,0.934,1.52,1.04,0.931,0.886
201T,0.35,0.348,0.354,0.343,0.323,1.01,0.989,0.971,0.968,0.976,0.602,0.55,0.45,0.538,0.517,1.1,1.09,1.04,1.01,1.08
NCI-H838,0.243,0.237,0.211,0.204,0.204,0.961,1.17,1.01,0.862,0.705,0.27,0.279,0.217,0.305,0.205,0.767,0.923,0.88,0.942,0.598
LK-2,0.784,0.723,0.666,0.662,0.717,0.955,1.35,0.927,0.959,1.08,0.316,0.293,0.269,0.312,0.27,–,–,–,–,–
NCI-H1944,0.346,0.342,0.328,0.322,0.312,0.742,0.955,0.805,0.86,0.918,0.232,0.231,0.202,0.252,0.276,–,–,–,–,–
NCI-H1650,0.291,0.31,0.367,0.321,0.304,–,–,–,–,–,0.303,0.367,0.339,0.303,0.327,0.229,0.196,0.232,–,0.192
NCI-H596,–,–,–,–,–,0.58,0.48,0.482,0.48,0.392,0.558,0.623,0.54,0.608,0.5,0.793,0.973,0.93,1.1,1.28
SK-MES-1,0.286,0.298,0.304,0.296,0.294,0.915,0.926,0.843,0.882,0.712,0.236,0.262,0.132,0.171,0.163,–,–,–,–,–
NCI-H2170,0.422,0.434,0.39,0.382,0.388,0.762,0.874,0.862,–,0.786,0.455,0.526,0.461,0.504,0.404,–,–,–,–,–
NCI-H358,0.135,0.113,0.145,0.119,0.0943,1.03,0.824,0.737,0.753,0.669,0.202,0.15,0.137,0.22,0.167,–,–,–,–,–
NCI-H1563,–,–,–,–,–,0.867,1.03,0.897,0.917,0.933,0.458,0.422,0.429,0.372,0.385,0.906,0.808,0.849,0.867,0.876
EBC-1,–,–,–,–,–,0.869,0.885,0.877,0.948,0.654,–,–,–,–,–,0.596,0.5,0.56,0.585,0.499
Calu-6,–,–,–,–,–,0.914,0.977,0.903,1.55,0.765,–,–,–,–,–,1.04,1.01,1.02,0.958,0.874
HCC-44,0.83,0.953,0.943,0.907,0.867,0.872,0.792,0.789,0.824,0.778,–,–,–,–,–,0.963,0.931,0.913,0.829,0.824
